According to ChEMBL document CHEMBL1201862, “PubChem BioAssay data set” (2004):
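Compound exposure: 48 hours, 5 concentrations, 96-well plates. GI50 is the concentration that inhibits growth by half.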 The source made the active and inactive calls. Rule as the data show it: active = GI50 up to about 1.1 µM and inactive = higher.

What was measured:
Test in all cases: NCI-60 cell line screen, 48 h
[1] = system: A498
[2] = system: A549
[3] = system: ACHN
[4] = system: CAKI-1
[5] = system: DU-145
[6] = system: HCT-15
[7] = system: HOP-92
[8] = system: LOX IMVI
[9] = system: MCF7
[10] = system: Malme-3M
[11] = system: NCI/ADR-RES
[12] = system: RPMI-8226
[13] = system: RXF 393
[14] = system: SF-295
[15] = system: SK-MEL-2
[16] = system: SNB-75
[17] = system: SR
[18] = system: T47D
[19] = system: NCI-H226
[20] = system: HCC 2998

| SMILES | GI50 [1] | GI50 [2] | GI50 [3] | GI50 [4] | GI50 [5] | GI50 [6] [µM] | GI50 [7] | GI50 [8] | GI50 [9] | GI50 [10] | GI50 [11] | GI50 [12] | GI50 [13] | GI50 [14] | GI50 [15] | GI50 [16] | GI50 [17] | GI50 [18] | GI50 [19] | GI50 [20] |
| --- | --- | --- | --- | --- | --- | --- | --- | --- | --- | --- | --- | --- | --- | --- | --- | --- | --- | --- | --- | --- |
| OC1(c2ccc(Cl)cc2)c2c(ccc3c2OCO3)C2=NCCN21 (centres undefined) | 20.1 µM (inactive) | 70.3 µM (inactive) | 38 µM (inactive) | 46.9 µM (inactive) | 97.7 µM (inactive) | 52.7 | 16.7 µM (inactive) | 30.5 µM (inactive) | 33.7 µM (inactive) | 1.23 µM (inactive) | > 100 µM (inactive) | 19.2 µM (inactive) | 26.7 µM (inactive) | 36.6 µM (inactive) | 21.2 µM (inactive) | 6.14 µM (inactive) | 21.5 µM (inactive) | 31.7 µM (inactive) | – | – |
| COc1cc(/C=C2\N=C(c3ccccc3)N(c3ccc(S(=O)(=O)Nc4nccs4)cc3)C2=O)ccc1O | > 100 µM (inactive) | > 100 µM (inactive) | > 100 µM (inactive) | > 100 µM (inactive) | > 100 µM (inactive) | 57.5 | 40.7 µM (inactive) | 40.3 µM (inactive) | 67.1 µM (inactive) | > 100 µM (inactive) | > 100 µM (inactive) | 45 µM (inactive) | 62.2 µM (inactive) | > 100 µM (inactive) | > 100 µM (inactive) | 62.8 µM (inactive) | 59.7 µM (inactive) | 85.5 µM (inactive) | 71 µM (inactive) | – |
| COc1ccc(OC)c2sc(N3C(=O)/C(=C/c4cccc([N+](=O)[O-])c4)N=C3c3ccccc3)nc12 | 57.8 µM (inactive) | 47.1 µM (inactive) | 99.8 µM (inactive) | > 100 µM (inactive) | 68.4 µM (inactive) | 61.5 | 94.2 µM (inactive) | 23.1 µM (inactive) | 21.2 µM (inactive) | > 100 µM (inactive) | 56 µM (inactive) | 22.5 µM (inactive) | 55.1 µM (inactive) | 51.8 µM (inactive) | 69 µM (inactive) | 42.7 µM (inactive) | 23.7 µM (inactive) | 22.3 µM (inactive) | – | 45.5 µM (inactive) |
| Clc1ccc(-c2nn3c(-c4ccncc4)nnc3s2)cc1 | – | > 100 µM (inactive) | 61 µM (inactive) | > 100 µM (inactive) | 42.9 µM (inactive) | 16.4 | 41.6 µM (inactive) | > 100 µM (inactive) | > 100 µM (inactive) | > 100 µM (inactive) | > 100 µM (inactive) | > 100 µM (inactive) | 25.6 µM (inactive) | 62.1 µM (inactive) | > 100 µM (inactive) | – | > 100 µM (inactive) | > 100 µM (inactive) | > 100 µM (inactive) | – |
| Cc1nn(-c2ccccc2)c(C)c1/C=N/NC(=O)c1sc(=S)n(-c2ccccc2)c1N | 3.63 µM (inactive) | 3.9 µM (inactive) | 1.48 µM (inactive) | 1.56 µM (inactive) | 9.66 µM (inactive) | 4.89 | – | 2.09 µM (inactive) | 5.65 µM (inactive) | 3.58 µM (inactive) | 3.62 µM (inactive) | 3.35 µM (inactive) | 1.46 µM (inactive) | 2.42 µM (inactive) | 29 µM (inactive) | 0.281 µM (active) | 3.94 µM (inactive) | 4.2 µM (inactive) | 6.52 µM (inactive) | 4.61 µM (inactive) |
| NCCCC[C@H](N)C(=O)Nc1ccc(-c2nc3ccccc3s2)cc1Cl | 0.149 µM (active) | 2.96 µM (inactive) | 13.4 µM (inactive) | 4.85 µM (inactive) | 6.78 µM (inactive) | 5.68 | 18.8 µM (inactive) | 1.36 µM (inactive) | < 0.034 µM (active) | 15.1 µM (inactive) | 16.5 µM (inactive) | – | 12.4 µM (inactive) | 5 µM (inactive) | 16.8 µM (inactive) | 9.77 µM (inactive) | 2.36 µM (inactive) | < 0.0478 µM (active) | – | 0.681 µM (active) |
| CCCCCC[C@H]1C(=O)O[C@H](C)[C@H](NC(=O)c2cccc(NC=O)c2OC)C(=O)O[C@@H](C)[C@@H]1OC(=O)C(C)CC.CCCCCC[C@H]1C(=O)O[C@H](C)[C@H](NC(=O)c2cccc(NC=O)c2OC)C(=O)O[C@@H](C)[C@@H]1OC(=O)CC(C)C (some centres undefined) | 12.4 µM (inactive) | 5.9 µM (inactive) | 5.83 µM (inactive) | 12.9 µM (inactive) | 15.7 µM (inactive) | 14.7 | 17.5 µM (inactive) | 25.9 µM (inactive) | 4.88 µM (inactive) | > 100 µM (inactive) | 7.59 µM (inactive) | 8.57 µM (inactive) | > 100 µM (inactive) | 14.5 µM (inactive) | 25.6 µM (inactive) | – | 5.82 µM (inactive) | 20.8 µM (inactive) | 17.6 µM (inactive) | 89.7 µM (inactive) |
| CCOC1=NC(C(F)(F)F)(C(F)(F)F)N=C(/N=C(/N)N(C)C(C(C)C)P(=O)(OC(C)C)OC(C)C)O1 (centres undefined) | > 100 µM (inactive) | > 100 µM (inactive) | 44.7 µM (inactive) | > 100 µM (inactive) | > 100 µM (inactive) | 58.7 | – | 81.5 µM (inactive) | > 100 µM (inactive) | 54.1 µM (inactive) | 31.3 µM (inactive) | 45.9 µM (inactive) | 41 µM (inactive) | 83.8 µM (inactive) | 91.4 µM (inactive) | 44.8 µM (inactive) | 55.3 µM (inactive) | 52.7 µM (inactive) | > 100 µM (inactive) | > 100 µM (inactive) |
| CC(C)C(=O)OCC1OC(n2c(Br)nc3c(=O)[nH]c(N)nc32)C(OC(=O)C(C)C)C1OC(=O)C(C)C (centres undefined) | – | 35.6 µM (inactive) | > 100 µM (inactive) | – | > 100 µM (inactive) | > 100 | > 100 µM (inactive) | 19.8 µM (inactive) | 37.6 µM (inactive) | > 100 µM (inactive) | > 100 µM (inactive) | – | – | 21.2 µM (inactive) | 68.1 µM (inactive) | 83.9 µM (inactive) | 38 µM (inactive) | 54.8 µM (inactive) | > 100 µM (inactive) | – |
| O=C1NN=C2C=C(c3ccc(Cl)cc3)CC(c3cccc(Cl)c3)C12 (centres undefined) | – | 16.4 µM (inactive) | 19.9 µM (inactive) | 34.8 µM (inactive) | 64.3 µM (inactive) | 13.9 | 9.79 µM (inactive) | 18.5 µM (inactive) | 17.3 µM (inactive) | 37.2 µM (inactive) | 39 µM (inactive) | 20.5 µM (inactive) | 14.5 µM (inactive) | 18.7 µM (inactive) | 19.7 µM (inactive) | – | 18.2 µM (inactive) | 60.7 µM (inactive) | 20.4 µM (inactive) | 17.1 µM (inactive) |
| O=C(OCCN=c1c2ccccc2ccc2ccccc12)c1cc([N+](=O)[O-])cc([N+](=O)[O-])c1 | – | > 100 µM (inactive) | > 100 µM (inactive) | > 100 µM (inactive) | > 100 µM (inactive) | > 100 | > 100 µM (inactive) | > 100 µM (inactive) | > 100 µM (inactive) | 21.5 µM (inactive) | > 100 µM (inactive) | > 100 µM (inactive) | > 100 µM (inactive) | > 100 µM (inactive) | > 100 µM (inactive) | > 100 µM (inactive) | > 100 µM (inactive) | > 100 µM (inactive) | > 100 µM (inactive) | – |
| O=C1c2ccccc2-c2nc(-c3ccccc3)cc3c2c1nc1ccccc13 | – | 16.9 µM (inactive) | 18.5 µM (inactive) | 27.2 µM (inactive) | 13.9 µM (inactive) | 11.2 | – | 1.77 µM (inactive) | 4.51 µM (inactive) | 4.7 µM (inactive) | 14.5 µM (inactive) | 0.479 µM (active) | 29.5 µM (inactive) | 12 µM (inactive) | 20 µM (inactive) | – | 2.11 µM (inactive) | 21.5 µM (inactive) | 16.6 µM (inactive) | 13.8 µM (inactive) |
| NNC(=O)c1ccc(OCc2nc3ccccc3[nH]2)cc1 | > 100 µM (inactive) | > 100 µM (inactive) | > 100 µM (inactive) | > 100 µM (inactive) | 94.2 µM (inactive) | > 100 | > 100 µM (inactive) | > 100 µM (inactive) | 72.6 µM (inactive) | > 100 µM (inactive) | > 100 µM (inactive) | 55.6 µM (inactive) | 34.8 µM (inactive) | > 100 µM (inactive) | > 100 µM (inactive) | – | 25.2 µM (inactive) | 53.7 µM (inactive) | > 100 µM (inactive) | – |
| CCOC(=O)c1cc(C(=O)c2ccccc2)n2nc(-c3ccc(Cl)cc3)ccc12 | 16.8 µM (inactive) | 15.4 µM (inactive) | 15 µM (inactive) | 31.8 µM (inactive) | 27.6 µM (inactive) | 33.9 | 24.8 µM (inactive) | 56.4 µM (inactive) | 20.9 µM (inactive) | 19.5 µM (inactive) | 23.4 µM (inactive) | 91.2 µM (inactive) | 15.2 µM (inactive) | 20.4 µM (inactive) | 17.4 µM (inactive) | – | 72.6 µM (inactive) | 21.9 µM (inactive) | 20.4 µM (inactive) | 23.2 µM (inactive) |
| COc1ccc(C2NC(N)=C(C#N)C3=C2C(C)CCC3)cc1OC (centres undefined) | – | – | 32.3 µM (inactive) | > 100 µM (inactive) | > 100 µM (inactive) | 44.3 | – | 35.5 µM (inactive) | 43.2 µM (inactive) | 28.6 µM (inactive) | 35.2 µM (inactive) | 10.2 µM (inactive) | > 100 µM (inactive) | 12.3 µM (inactive) | > 100 µM (inactive) | 1.44 µM (inactive) | 0.261 µM (active) | 2.96 µM (inactive) | > 100 µM (inactive) | – |
